Results as given in ChEMBL document CHEMBL4823314, “Design, synthesis and biological evaluation of novel acridine and quinoline derivatives as tubulin polymerization inhibitors with anticancer activities” (Bioorg Med Chem, 2021).
Activity calls are given as the source filed them. No cut-off for these calls is given here.

Tests used:
HepG2 [1] = test: Inhibition of colony formation in human HepG2 cells at 1 uM incubated for 24 hrs by crystal violet staining based analysis; format: functional, cell-based
HeLa [2] = test: Antiproliferative activity against human HeLa cells assessed as reduction in cell viability at 0.5 uM by MTT assay; format: functional, cell-based; conditions: time 12-72 hrs, TDE = time-dependent effect
HepG2 [3] = test: Cell cycle arrest in human HepG2 cells assessed as accumulation at S phase at 5 uM measured after 48 hrs by propidium iodide staining based flow cytometry analysis (reference value: 34.13%); format: functional
HepG2 [4] = test: Disruption of microtubule network in human HepG2 cells incubated for 12 hrs by DAPI staining based immunofluorescence analysis; format: functional, cell-based; conditions: dose 0.1-1 µM
MCF7 [5] = test: Antiproliferative activity against human MCF7 cells assessed as reduction in cell viability incubated for 48 hrs by MTT assay; format: functional, cell-based; conditions: dose 2.5-10 µM
HepG2 [6] = test: Induction of apoptosis in human HepG2 cells assessed as early apoptotic cells at 1 uM measured after 48 hrs by AnnexinV-FITC/propidium iodide staining based flow cytometry (reference value: 10.8%); format: functional
HepG2 [7] = test: Cell cycle arrest in human HepG2 cells assessed as accumulation at G1 phase at 1 uM measured after 48 hrs by propidium iodide staining based flow cytometry analysis (reference value: 56.11%); format: functional
HepG2 [8] = test: Cell cycle arrest in human HepG2 cells assessed as accumulation at G2/M phase at 0.5 uM measured after 48 hrs by propidium iodide staining based flow cytometry analysis (reference value: 9.27%); format: functional
Sus scrofa = organism: Sus scrofa; test: Inhibition of pig brain tubulin polymerization measured upto 20 mins by spectrophotometric method; conditions: dose 3-100 µM, time min <=20
HepG2 [9] = test: Induction of apoptosis in human HepG2 cells assessed as late apoptotic cells at 0.5 uM measured after 48 hrs by AnnexinV-FITC/propidium iodide staining based flow cytometry (reference value: 5.93%); format: functional
B16-F10 [10] = test: Antiproliferative activity against mouse B16-F10 cells assessed as reduction in cell viability incubated for 48 hrs by MTT assay; format: functional, cell-based; conditions: dose 2.5-10 µM
HepG2 [11] = test: Induction of apoptosis in human HepG2 cells assessed as late apoptotic cells at 1 uM measured after 48 hrs by AnnexinV-FITC/propidium iodide staining based flow cytometry (reference value: 5.93%); format: functional
HepG2 [12] = test: Cell cycle arrest in human HepG2 cells assessed as accumulation at S phase at 0.5 uM measured after 48 hrs by propidium iodide staining based flow cytometry analysis (reference value: 34.13%); format: functional
HepG2 [13] = test: Induction of apoptosis in human HepG2 cells assessed as viable cells at 1 uM measured after 48 hrs by AnnexinV-FITC/propidium iodide staining based flow cytometry (reference value: 82.2%); format: functional; conditions: read-out: Activity
HepG2 [14] = test: Inhibition of colony formation in human HepG2 cells incubated for 24 hrs by crystal violet staining based analysis; format: functional, cell-based; conditions: dose 0.1-1 µM
HepG2 [15] = test: Cell cycle arrest in human HepG2 cells assessed as accumulation at G1 phase at 5 uM measured after 48 hrs by propidium iodide staining based flow cytometry analysis (reference value: 56.11%); format: functional
HepG2 [16] = test: Cell cycle arrest in human HepG2 cells assessed as accumulation at G1 phase at 0.5 uM measured after 48 hrs by propidium iodide staining based flow cytometry analysis (reference value: 56.11%); format: functional
MCF7 [17] = test: Antiproliferative activity against human MCF7 cells assessed as reduction in cell viability at 0.5 uM by MTT assay; format: functional, cell-based; conditions: time 12-72 hrs, TDE = time-dependent effect
HepG2 [18] = test: Induction of apoptosis in human HepG2 cells assessed as early apoptotic cells at 0.5 uM measured after 48 hrs by AnnexinV-FITC/propidium iodide staining based flow cytometry (reference value: 10.8%); format: functional
HepG2 [19] = test: Induction of apoptosis in human HepG2 cells assessed as necrotic cells at 5 uM measured after 48 hrs by AnnexinV-FITC/propidium iodide staining based flow cytometry (reference value: 1.05%); format: functional
[20] = Inhibition of pig brain tubulin polymerization by spectrophotometric method; format: tissue-based, Sus scrofa
HepG2 [21] = test: Induction of apoptosis in human HepG2 cells assessed as necrotic cells at 0.5 uM measured after 48 hrs by AnnexinV-FITC/propidium iodide staining based flow cytometry (reference value: 1.05%); format: functional
HepG2 [22] = test: Antiproliferative activity against human HepG2 cells assessed as reduction in cell viability measured after 48 hrs by MTT assay; format: functional, cell-based; conditions: HepG2, 48 h
HepG2 [23] = test: Antiproliferative activity against human HepG2 cells assessed as reduction in cell viability incubated for 48 hrs by MTT assay; format: functional, cell-based; conditions: dose 2.5-10 µM
B16-F10 [24] = test: Antiproliferative activity against mouse B16-F10 cells assessed as reduction in cell viability measured after 48 hrs by MTT assay; format: functional, cell-based; conditions: B16-F10, 48 h
HepG2 [25] = test: Induction of apoptosis in human HepG2 cells assessed as necrotic cells at 1 uM measured after 48 hrs by AnnexinV-FITC/propidium iodide staining based flow cytometry (reference value: 1.05%); format: functional
HepG2 [26] = test: Antiproliferative activity against human HepG2 cells assessed as reduction in cell viability at 0.5 uM by MTT assay; format: functional, cell-based; conditions: time 12-72 hrs, TDE = time-dependent effect
HepG2 [27] = test: Cell cycle arrest in human HepG2 cells assessed as accumulation at G2/M phase at 5 uM measured after 48 hrs by propidium iodide staining based flow cytometry analysis (reference value: 9.27%); format: functional
B16-F10 [28] = test: Antiproliferative activity against mouse B16-F10 cells assessed as reduction in cell viability at 0.5 uM by MTT assay; format: functional, cell-based; conditions: time 12-72 hrs, TDE = time-dependent effect
HepG2 [29] = test: Induction of apoptosis in human HepG2 cells assessed as late apoptotic cells at 5 uM measured after 48 hrs by AnnexinV-FITC/propidium iodide staining based flow cytometry (reference value: 5.93%); format: functional
HepG2 [30] = test: Cell cycle arrest in human HepG2 cells assessed as accumulation at G2/M phase at 1 uM measured after 48 hrs by propidium iodide staining based flow cytometry analysis (reference value: 9.27%); format: functional
HepG2 [31] = test: Induction of apoptosis in human HepG2 cells assessed as viable cells at 0.5 uM measured after 48 hrs by AnnexinV-FITC/propidium iodide staining based flow cytometry (reference value: 82.2%); format: functional; conditions: read-out: Activity
HepG2 [32] = test: Induction of apoptosis in human HepG2 cells assessed as viable cells at 5 uM measured after 48 hrs by AnnexinV-FITC/propidium iodide staining based flow cytometry (reference value: 82.2%); format: functional; conditions: read-out: Activity
HeLa [33] = test: Antiproliferative activity against human HeLa cells assessed as reduction in cell viability incubated for 48 hrs by MTT assay; format: functional, cell-based; conditions: dose 2.5-10 µM
MCF7 [34] = test: cells; conditions: Homo sapiens, MCF7, 48 h
Description: Antiproliferative activity against human MCF7 cells assessed as reduction in cell viability measured after 48 hrs by MTT assay

HepG2 [35] = test: Cell cycle arrest in human HepG2 cells assessed as accumulation at S phase at 1 uM measured after 48 hrs by propidium iodide staining based flow cytometry analysis (reference value: 34.13%); format: functional
HeLa [36] = test: cells; conditions: Homo sapiens, 48 h
Description: Antiproliferative activity against human HeLa cells assessed as reduction in cell viability measured after 48 hrs by MTT assay

HepG2 [37] = test: Induction of apoptosis in human HepG2 cells assessed as early apoptotic cells at 5 uM measured after 48 hrs by AnnexinV-FITC/propidium iodide staining based flow cytometry (reference value: 10.8%); format: functional
HepG2 [38] = test: Antimigratory activity in human HepG2 cells assessed as inhibition of cell migration incubated for 24 hrs by scratch wound healing assay; format: functional, cell-based; conditions: dose 0.1-1 µM

With `COc1ccc(N(C)c2cccc3ncccc23)cc1` the inhibition (HepG2 [1]) was “Active”, the Activity (HeLa [2]) was “Tde” and the Activity (HepG2 [3]) was 30.88%. The Activity (HepG2 [4]) was “Active”, the Activity (MCF7 [5]) was “Dose-Dependent Effect” and the Activity (HepG2 [6]) was 59.6%. The Activity (HepG2 [7]) was 32.66%, the Activity (HepG2 [8]) was 17.46% and the inhibition (Sus scrofa) was “Dose-Dependent Effect”. For the same molecule, the Activity (HepG2 [9]) was 23.3%, the Activity (B16-F10 [10]) was “Dose-Dependent Effect” and the Activity (HepG2 [11]) was 28.5%. The Activity (HepG2 [12]) was 38.55%, the viability at 1 µM (HepG2 [13]) was 10.6% and the inhibition (HepG2 [14]) was “Dose-Dependent Effect”. The Activity (HepG2 [15]) was 38%, the Activity (HepG2 [16]) was 42.3% and the Activity (MCF7 [17]) was “Tde”. The Activity (HepG2 [18]) was 48.9%, the Activity (HepG2 [19]) was 2.5% and the IC50 [20] was 12.4 µM. The Activity (HepG2 [21]) was 2.58%, the IC50 (HepG2 [22]) was 0.261 µM and the Activity (HepG2 [23]) was “Dose-Dependent Effect”. For the same molecule, the IC50 (B16-F10 [24]) was 0.563 µM, the Activity (HepG2 [25]) was 1.38% and the Activity (HepG2 [26]) was “Tde”. The Activity (HepG2 [27]) was 32.13%, the Activity (B16-F10 [28]) was “Tde” and the Activity (HepG2 [29]) was 39.4%. The Activity (HepG2 [30]) was 27.32%, the viability at 0.5 µM (HepG2 [31]) was 25.2% and the viability at 5 µM (HepG2 [32]) was 19.3%. For the same molecule, the Activity (HeLa [33]) was “Dose-Dependent Effect”, the IC50 (MCF7 [34]) was 0.609 µM and the Activity (HepG2 [35]) was 38.01%. The IC50 (HeLa [36]) was 2.05 µM, the Activity (HepG2 [37]) was 38.8% and the Activity (HepG2 [38]) was “Dose-Dependent Effect”.
